For series [1] the following is noted: oral therapy; cited from earlier work.
Series [2] in a line: In vitro diffusion studies with human skin (flow-through diffusion cells). Format: in vitro ADME. The note with it: for in vitro NTX (equivalent) flux across human skin, NTX-NTX compared with NTX: FIG. 2, mean of nine cells NTX and twelve cells NTX-NTX, three donors, paired Student's t-test p<0.05. On the procedure: In vitro diffusion studies were conducted using human skin harvested during abdominal reduction surgery. Skin sections were obtained by using a Padgett dermatome set to 250 microns, and then were frozen at −20° C. until the time of the experiment. A PermeGear flow-through (In-Line, Riegelsville, Pa.) diffusion cell system was used for the diffusion studies. Data was collected utilizing three different specimens of frozen human tissue from three different donors. The human tissues had been frozen from two to five months. Three diffusion cells were used for NTX and four cells were used for NTX-NTX. A receiver buffer of HEPES-buffered Hank's balanced salts solution with gentamicin at pH of 7.3-7.4 was collected at a flow rate of 1.1 mL/h. A saturated NTX or NTX-NTX solution in light mineral oil was applied to the skin cells. Each cell received 0.25 mL of the respective drug solution. Samples were collected in six hour increments for 48 hours. After a six hour sample was obtained, they were stored at 4° C. until solid phase extraction processing. Skin cells were kept at 32° C. with a circulating water bath set to 39° C.
The diffusion data were plotted as the cumulative quantity of NTX equivalents collected in the receiver cell as a function of time. The flux value for a given experiment was computed from Fick's First Law of diffusion:
where Js is the steady-state flux, M is the cumulative amount of intact drug permeating the skin, A is the area of the cell (0.95 cm^2), Kp is the effective permeability coefficient in cm/h, and ΔC is the difference in concentration of NTX or NTX-NTX in the donor and receiver. Buildup in the receiver cell was kept to a minimum throughout the studies.
[…] in the skin and appeared as NTX in the receiver collection. The total amounts of NTX that absorbed through the skin and into the receiver from NTX and NTX-NTX were used in the data analysis. […] Data represent the mean±standard deviation of the nine skin cells with NTX and the twelve skin cells with NTX-NTX. Three individual human donor skin tissues were used. Due to the high variability of human skin, NTX was used with each experiment as a control. The results are reported in NTX nmol equivalents because the NTX-NTX duplex contains two molecules of NTX. Approximately 4% of the NTX flux was from the intact NTX-NTX prodrug, and 96% was NTX originating from the hydrolysis of NTX-NTX.
The data represents the mean±standard deviation of the nine cells with NTX and the twelve cells of NTX-NTX. Three individual human donor skin tissues were used.

Series [3] in a line: Drug concentration in the skin after the 48 hour diffusion study.
The mark [4] stands for this setting: saturated solution in light mineral oil, human skin, 32° C., 48 hours, receiver collection.

Entries after “also recorded” stand apart in the source; their conditions may differ.

In the case of `O=C1CC[C@@]2(O)[C@H]3Cc4ccc(O)c5c4[C@@]2(CCN3CC2CC2)[C@H]1O5` [NTX, Naltrexone], the hepatotoxicity result in series [1] is reported as “dose-related hepatocellular injury”.
Consider `O=C(Oc1ccc2c3c1OC1C(=O)CC[C@@]4(O)[C@@H](C2)N(CC2CC2)CC[C@]314)Oc1ccc2c3c1OC1C(=O)CC[C@@]4(O)[C@@H](C2)N(CC2CC2)CC[C@]314` (stereo partly shown) [NTX-NTX, 3,3′-Di-(N-cyclopropylmethyl-4,5-epoxy-14-hydroxy-morphinan-6-one-3-yl) Carbonate], for which the “in vitro NTX (equivalent) flux across human skin, NTX-NTX compared with NTX” value in series [2] was “significant difference between the means; also recorded: significant increase in NTX equivalent flux”; in series [2] (listed as duplex prodrug of NTX), “unexpected increase of NTX maximum flux rate”. The “share of the NTX flux that was NTX originating from the hydrolysis of NTX-NTX” value in series [2] (setting [4]) stood at 96%. In addition, the “share of the NTX flux that was intact NTX-NTX prodrug” value in series [2] (setting [4]) was “Approximately 4%”. Besides, the “total NTX equivalent skin concentration, NTX-NTX-treated skin versus NTX-treated skin” value in series [3] (after 48 hour diffusion study, FIG. 3) is listed as “No significant difference”. Moreover, in series [3] (end of the 48 hour study, human skin), the “share of the drug extracted from the NTX-NTX-treated skin that was NTX (bioconversion)” value was determined as 66%.
